Converted amounts (≈) assume the structure as drawn. Like-named read-outs stand apart in the source and are kept apart here. Blank lines part the entries; values can stand above or below the compound they belong to.
Key:
Aspergillus fumigatus = assay: MIC in serial dilution test, Aspergillus fumigatus; assay type: cell-based
Experimental: (§1) The antimycotic activities of the compounds were measured by in vitro determination of the minimum inhibitory concentration (MIC) for yeasts, molds and dermatophytes.
(§2) 6 dermatophytes, 2 yeasts and 4 molds were used for testing with fungi, as follows:
Aspergillus fumigatus (Asp.fu.)
(§3) The minimum inhibitory concentration (MIC) was determined in serial dilution tests in test tubes. The volume of the liquid nutrient medium in each test tube was 4.5 ml.
(§4) The substances were dissolved in DMSO and diluted with sterile distilled water to 10 concentrations (100, 50, 25, 12.5, 6.25, 3.12, 1.56, 0.78, 0.39 and 0.19 μg/ml). 0.5 ml of each of these dilution steps was added to the liquid nutrient medium. Thus, a constant concentration of solvent in all the nutrient media was ensured, irrespective of the active compound concentration.
(§5) A comparison solution which contained only the solvent in appropriate concentration was included when carrying out each of the tests.
(§6) The individual strains were maintained on Sabouraud/beerwort agar slants and, before they were used in a test, they underwent a passage on a modified Sabouraud liquid nutrient medium. The strains were then harvested, washed and converted into a suspension of McFaerland 3 in the case of yeasts and molds and of McFaerland 4-5 in the case of dermatophytes.
(§7) The amount of material inoculated (inoculum) was 100 μl/test tube (inoculated densities: yeasts […] of the liquid nutrient medium was 6.0. After inoculation had taken place the fungi were incubated at 22° C. for 14 days.
(§8) The MIC was then determined. The concentration step at which growth was no longer visible on macroscopic inspection was used for the determination of the MIC. The comparison substance used was 1-(2-(2,4-dichlorophenyl)-2-(2,4-dichlorophenylmethoxy)ethyl)-1H-imidazoleas nitrate (compound A).

Candida tropicalis = assay: MIC in serial dilution test, Candida tropicalis; assay type: cell-based; settings: 336 h
Experimental: as §1, §2
Candida tropicalis (C.trop.)
as §3, §4, §5, §6, §7, §8

Mucor mucedo minus = assay: MIC in serial dilution test, Mucor mucedo minus; assay type: cell-based; settings: 336 h, pH 6, Mucor mucedo minus, pH 6.0, 22° C., 14 days, read-out: MIC values, Mu. mu-
Experimental: as §1, §2
Mucor mucedo minus (Mu.mu^-)
as §3, §4, §5, §6, §7, §8

Trichophyton verrucosum = assay: MIC in serial dilution test, Trichophyton verrucosum; assay type: cell-based; settings: 336 h, pH 6, Trichophyton verrucosum, pH 6.0, 22° C., 14 days, read-out: MIC values, Tri. ve.
Experimental: as §1, §2
Trichophyton verrucosum (Tri.ve.)
as §3, §4, §5, §6, §7, §8

Mucor mucedo plus = assay: MIC in serial dilution test, Mucor mucedo plus; assay type: cell-based; settings: 336 h, pH 6, Mucor mucedo plus, pH 6.0, 22° C., 14 days, read-out: MIC values, Mu. mu+
Experimental: as §1, §2
Mucor mucedo plus (Mu.mu^+)
as §3, §4, §5, §6, §7, §8

Candida albicans = assay: MIC in serial dilution test, Candida albicans; assay type: cell-based; settings: 336 h
Experimental: as §1, §2
Candida albicans (C.alb.)
as §3, §4, §5, §6, §7, §8

Microsporum gypseum = assay: MIC in serial dilution test, Microsporum gypseum; assay type: cell-based; settings: Nannizzia gypsea, 336 h
Experimental: as §1, §2
Microsporum gypseum (Mi.gyp.)
as §3, §4, §5, §6, §7, §8

Epidermophyton floccosum = assay: MIC in serial dilution test, Epidermophyton floccosum; assay type: cell-based; settings: 336 h, pH 6, Epidermophyton floccosum, pH 6.0, 22° C., 14 days, read-out: MIC values, Ep. flo
Experimental: as §1, §2
Epidermophyton floccosum
as §3, §4, §5, §6, §7, §8

Absidia ramosa = assay: MIC in serial dilution test, Absidia ramosa; assay type: cell-based; settings: Lichtheimia ramosa, 336 h, pH 6, Absidia ramosa; pH 6.0, 22° C., 14 days; read-out: MIC values, Abs. ra.
Experimental: as §1, §2
Absidia ramosa (Abs.ra.)
as §3, §4, §5, §6, §7, §8

Trichophyton rubrum = assay: MIC in serial dilution test, Trichophyton rubrum; assay type: cell-based; settings: 336 h, pH 6, Trichophyton rubrum, pH 6.0, 22° C., 14 days, read-out: MIC values, Tri. ru.
Experimental: as §1, §2
Trichophyton rubrum (Tri.ru.)
as §3, §4, §5, §6, §7, §8

Microsporum canis = assay: MIC in serial dilution test, Microsporum canis; assay type: cell-based; settings: 336 h, pH 6, Microsporum canis, pH 6.0, 22° C., 14 days, read-out: MIC values, Mi. can
Experimental: as §1, §2
Microsporum canis (Mi.can.)
as §3, §4, §5, §6, §7, §8

[1] = system: Trichophyton mentagrophytes; assay: MIC in serial dilution test, Trichophyton mentagrophytes; assay type: cell-based; settings: 336 h, pH 6, Trichophyton mentagrophytes, pH 6.0, 22° C., 14 days, read-out: MIC values, Tri. me.
Experimental: as §1, §2
Trichophyton mentagrophytes
as §3, §4, §5, §6, §7, §8

[2] = Determination of the lethal dose in rats, single oral administration; assay type: in vivo; settings: for LD100: oral, administration once
Experimental: (§9) Determination of the lethal dose of 1-(2-(2,4-dichlorophenyl)-2-(3-(4-chlorophenylthio)propylamino)ethyl)-1H-imidazole dihydrochloride (compound No. 19) in mice and rats on administration once.
(§10) In each case, oral doses of 0, 500, 1,000 and 3,000 mg/kg of body weight were administered to four groups of female and male animals.

[3] = Determination of the LD50 in rats by i.v. administration; assay type: in vivo; settings: 12.5-100 mg/kg
Experimental: (§11) Determination of the LD50 of 1-(2-(2,4-di-chlorophenyl)-2-(3-(4-chlorophenylthio)propylamino)-ethyl)-1H-imidazole dihydrochloride (compound No. 19) in mice and rats by i.v. administration. In each case, 0 (0.9% NaCl solution), 12.5, 25.0, 50.0 and 100 mg/kg of body weight were injected i.v. into 5 groups of female and male animals.

[4] = system: Salmonella typhimurium strains TA 1535, TA 1537, TA 1538, TA 98 and TA 100; assay: Potential to cause gene mutations in Salmonella typhimurium; assay type: cell-based; settings: with or without metabolic activator (S 9 mix); 10-1,000 and 3.3-333.3 μg/plate
Experimental: Compound No. 19 was investigated for its potential to cause gene mutations in five Salmonella typhimurium strains TA 1535, TA 1537, TA 1538, TA 98 and TA 100.
The following concentrations were tested, both with metabolic activator (S 9 mix) and without metabolic activator.

[5] = Determination of the lethal dose in mice, single oral administration; assay type: in vivo; settings: for LD100: oral, administration once
Experimental: as §9, §10

[6] = Determination of the LD50 in mice by i.v. administration; assay type: in vivo; settings: 12.5-100 mg/kg
Experimental: as §11

[7] = pH 6, Candida tropicalis, pH 6.0, 22° C., 14 days, read-out: MIC values, C. trop
[8] = pH 6.0, 22° C., 14 days, read-out: MIC values, C. alb
[9] = Microsporum gypseum, pH 6.0, 22° C., 14 days, read-out: MIC values, Mi. gyp
[10] = oral, 500, 1,000 and 3,000 mg/kg

Compound: Clc1ccc(SCCCNC(Cn2ccnc2)c2cccc3ccccc23)cc1 (centres unmarked) [compound 41]
MIC values, Asp. fu. (Aspergillus fumigatus; 20160 min, pH 6): 3,12 μg/ml

Compound: COc1ccc(SCCNC(Cn2ccnc2)c2ccc(Cl)cc2Cl)cc1 (centres unmarked) [compound 5]
MIC values, Asp. fu. (Aspergillus fumigatus; 20160 min, pH 6): 12,5 μg/ml

Compound: Fc1ccc(SCCCNC(Cn2ccnc2)c2ccc(Cl)cc2Cl)cc1 (centres unmarked) [compound 18]
MIC (Candida tropicalis; [7]): 6.25 µg/mL (≈ 14.7 µM)
MIC (Mucor mucedo minus): 12.5 µg/mL (≈ 29.5 µM)
MIC (Trichophyton verrucosum): 0.39 µg/mL (≈ 0.919 µM)
MIC (Mucor mucedo plus): 12.5 µg/mL
MIC (Candida albicans; [8]): 12.5 µg/mL (≈ 29.5 µM)
MIC (Microsporum gypseum; [9]): 3.12 µg/mL (≈ 7.35 µM)
MIC (Epidermophyton floccosum): 3.12 µg/mL (≈ 7.35 µM)
MIC (Absidia ramosa): 6.25 µg/mL (≈ 14.7 µM)
MIC (Trichophyton rubrum): 0.78 µg/mL (≈ 1.84 µM)
MIC (Microsporum canis): 6.25 µg/mL (≈ 14.7 µM)
MIC values, Asp. fu. (Aspergillus fumigatus; 20160 min, pH 6): 12,5 μg/ml
MIC [1]: 6.25 µg/mL (≈ 14.7 µM)

Compound: Clc1ccc(COC(Cn2ccnc2)c2ccc(Cl)cc2Cl)c(Cl)c1 (centres unmarked) [A, 1-(2-(2,4-dichlorophenyl)-2-(2,4-dichlorophenylmethoxy)ethyl)-1H-imidazole, reference compound]
MIC (Candida tropicalis; pH 6, read-out: MIC values, C. trop): 12.5 µg/mL (≈ 30 µM)
MIC (Candida albicans; pH 6, read-out: MIC values, C. alb): 12.5 µg/mL (≈ 30 µM)
MIC (Microsporum gypseum; pH 6, read-out: MIC values, Mi. gyp): 3.12 µg/mL (≈ 7.5 µM)
MIC values, Asp. fu. (Aspergillus fumigatus; Aspergillus fumigatus, pH 6.0, 22° C., 14 days): 3,12 μg/ml

Compound: Clc1ccc(C(Cn2ccnc2)NCCCSc2c(Cl)cccc2Cl)c(Cl)c1 (centres unmarked) [compound 26]
MIC values, Asp. fu. (Aspergillus fumigatus; 20160 min, pH 6): 12,5 μg/ml

Compound: Cl.Cl.Clc1ccc(SCCCNC(Cn2ccnc2)c2ccc(Cl)cc2Cl)cc1 (centres unmarked) [Compound No. 19, 1-(2-(2,4-dichlorophenyl)-2-(3-(4-chlorophenylthio)propylamino)ethyl)-1H-imidazole dihydrochloride]
LD100 ([2]; female): > 500 mg/kg
LD100 ([2]; male): > 1,000 mg/kg
clinical signs [2, 10]: Inactivity, ruffled fur, convulsions
clinical signs [3]: Inactivity, necrotic tail, convulsions
mutagenic activity [4]: No mutagenic activity whatever was observed
LD100 ([5]; female): > 1,000 mg/kg
LD100 ([5]; male): > 500 mg/kg
clinical signs [5, 10]: Inactivity, convulsions
MIC values, Asp. fu. (Aspergillus fumigatus; 20160 min, pH 6): 0,78 μg/ml
clinical signs [6]: Inactivity, necrotic tail

Other lines, results leading:

MIC values, Asp. fu. (Aspergillus fumigatus; 20160 min, pH 6): 6,25 μg/ml
Compound: Clc1ccc(C(Cn2ccnc2)NCCSc2ccc(Br)cc2)c(Cl)c1 (centres unmarked) [compound 4]

MIC values, Asp. fu. (Aspergillus fumigatus; 20160 min, pH 6): 0,39 μg/ml
Compound: Clc1ccc(C(Cn2ccnc2)NCCCSc2ccc(Br)cc2)c(Cl)c1 (centres unmarked) [compound 24]

MIC values, Asp. fu. (Aspergillus fumigatus; 20160 min, pH 6): 6,25 μg/ml
Compound: Clc1ccc(SCCNC(Cn2ccnc2)c2ccc(Cl)cc2Cl)cc1 (centres unmarked) [compound 3]

MIC (Candida tropicalis; [7]): 12.5 µg/mL (≈ 28.8 µM)
MIC (Mucor mucedo minus): 6.25 µg/mL (≈ 14.4 µM)
MIC (Trichophyton verrucosum): 0.78 µg/mL (≈ 1.8 µM)
MIC (Mucor mucedo plus): 6.25 µg/mL
MIC (Candida albicans; [8]): 12.5 µg/mL (≈ 28.8 µM)
MIC (Microsporum gypseum; [9]): 3.12 µg/mL (≈ 7.19 µM)
MIC (Epidermophyton floccosum): 0.78 µg/mL (≈ 1.8 µM)
MIC (Absidia ramosa): 50 µg/mL (≈ 115 µM)
MIC (Trichophyton rubrum): 1.56 µg/mL (≈ 3.59 µM)
MIC (Microsporum canis): 6.25 µg/mL (≈ 14.4 µM)
MIC values, Asp. fu. (Aspergillus fumigatus; 20160 min, pH 6): 3,12 μg/ml
MIC [1]: 0.78 µg/mL (≈ 1.8 µM)
Compound: Clc1ccc(SCCNC(Cn2ccnc2)c2ccc(-c3ccccc3)cc2)cc1 (centres unmarked) [compound 14]

— patent US4925855A, “Imidazole derivatives and antimycotics containing them” (CL Pharma Aktiengesellschaft, priority 1986, dated 1990)
